# Test system: SEM cells
# Assay: cell viability relative to DMSO control; higher = less cytotoxic
# Conditions: 48 h
# Procedure, shortened: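 Three leukemia lines were tested: NOMO1 and SEM at 500 cells/well and P12-Ichikawa at 1000 cells/well. Each was adapted for at least four passages in each medium and seeded in 5 μl in 1536-well plates, and library compounds in DMSO were pin-dosed from 47 μM to 0.79 nM in 11 threefold steps. After 48 h at 37°C, CellTiter-Glo One luminescence was read. Viability is a percentage relative to DMSO wells on each plate, with cell-free wells as background.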
# [1] = HPLM + 10% dialyzed FBS, 0.000781 µM
# [2] = HPLM + 10% dialyzed FBS, 0.00234 µM
# [3] = HPLM + 10% dialyzed FBS, 0.00702 µM
# [4] = HPLM + 10% dialyzed FBS, 0.0211 µM
# [5] = HPLM + 10% dialyzed FBS, 0.0632 µM
# [6] = HPLM + 10% dialyzed FBS, 0.19 µM
# [7] = HPLM + 10% dialyzed FBS, 0.569 µM
# [8] = HPLM + 10% dialyzed FBS, 1.71 µM
# [9] = HPLM + 10% dialyzed FBS, 5.12 µM
# [10] = HPLM + 10% dialyzed FBS, 15.4 µM
# [11] = HPLM + 10% dialyzed FBS, 46.1 µM
# [12] = RPMI 5 mM glucose + 10% FBS, 0.000781 µM
# [13] = RPMI 5 mM glucose + 10% FBS, 0.00234 µM
# [14] = RPMI 5 mM glucose + 10% FBS, 0.00702 µM
# [15] = RPMI 5 mM glucose + 10% FBS, 0.0211 µM
# [16] = RPMI 5 mM glucose + 10% FBS, 0.0632 µM
# [17] = RPMI 5 mM glucose + 10% FBS, 0.19 µM
# [18] = RPMI 5 mM glucose + 10% FBS, 0.569 µM
# [19] = RPMI 5 mM glucose + 10% FBS, 1.71 µM
# [20] = RPMI 5 mM glucose + 10% FBS, 5.12 µM
# [21] = RPMI 5 mM glucose + 10% FBS, 15.4 µM
# [22] = RPMI 5 mM glucose + 10% FBS, 46.1 µM
# [23] = RPMI 5 mM glucose + 10% dialyzed FBS, 0.000781 µM
# [24] = RPMI 5 mM glucose + 10% dialyzed FBS, 0.00234 µM
# [25] = RPMI 5 mM glucose + 10% dialyzed FBS, 0.00702 µM
# [26] = RPMI 5 mM glucose + 10% dialyzed FBS, 0.0211 µM
# [27] = RPMI 5 mM glucose + 10% dialyzed FBS, 0.0632 µM
# [28] = RPMI 5 mM glucose + 10% dialyzed FBS, 0.19 µM
# [29] = RPMI 5 mM glucose + 10% dialyzed FBS, 0.569 µM
# [30] = RPMI 5 mM glucose + 10% dialyzed FBS, 1.71 µM
# [31] = RPMI 5 mM glucose + 10% dialyzed FBS, 5.12 µM
# [32] = RPMI 5 mM glucose + 10% dialyzed FBS, 15.4 µM
# [33] = RPMI 5 mM glucose + 10% dialyzed FBS, 46.1 µM
SMILES,cell viability [1] [%],cell viability [2] [%],cell viability [3] [%],cell viability [4] [%],cell viability [5] [%],cell viability [6] [%],cell viability [7] [%],cell viability [8] [%],cell viability [9] [%],cell viability [10] [%],cell viability [11] [%],cell viability [12] [%],cell viability [13] [%],cell viability [14] [%],cell viability [15] [%],cell viability [16] [%],cell viability [17] [%],cell viability [18] [%],cell viability [19] [%],cell viability [20] [%],cell viability [21] [%],cell viability [22] [%],cell viability [23] [%],cell viability [24] [%],cell viability [25] [%],cell viability [26] [%],cell viability [27] [%],cell viability [28] [%],cell viability [29] [%],cell viability [30] [%],cell viability [31] [%],cell viability [32] [%],cell viability [33] [%]
CC(=O)[C@H]1CC[C@H]2[C@@H]3C/C=C4/C[C@@H](O)CC[C@]4(C)[C@H]3CC[C@]12C,100,91.7,96.8,103,113,115,114,106,113,114,115,113,116,126,117,124,116,126,121,123,118,119,,,,,,,,,,,
O=C1C(CCC(O)c2ccc(F)cc2)C(c2ccc(O)cc2)N1c1ccc(F)cc1 (stereo not given),107,97.3,110,112,103,109,108,101,113,102,104,81.4,98.2,96,111,92.9,100,101,97.1,114,98.8,101,106,113,121,121,128,113,115,121,113,108,108
Cc1nc(N)sc1-c1ccnc(Nc2ccc(N3CCOCC3)cc2)n1,88.8,98.7,102,102,107,107,85.5,83.8,30.5,26.2,31.3,78.7,111,124,106,130,107,94.9,87.1,19.1,14.2,18.1,81,95.6,114,118,112,102,81,73.7,22.4,18.4,17.2
COC1=CC(=C2C(=O)N(COC/3=C/C(=O)N4\C=C/C=C(OCCN5CCCCC5)\C4=N3)[S+]([O-])(=O)C2=C1)C(C)C,116,119,128,131,103,135,108,83.4,148,128,114,119,132,125,129,134,134,106,71,137,143,102,105,113,120,123,114,125,82.9,63.5,113,114,97.5
CC(C)N(CCCNC(=O)Nc1ccc(C(C)(C)C)cc1)C[C@H]1O[C@@H](n2cc(Br)c3c(N)ncnc32)[C@H](O)[C@@H]1O,87.3,99.8,96.6,98.8,105,101,85.1,98.4,104,72.4,18,83.1,98.3,115,104,114,109,106,104,77.4,77.2,17.1,67.2,92.6,98.9,92.5,89.7,91.4,87.7,80.2,83.5,78.9,26.3
NC(=O)c1c(OCc2c(F)cc(Br)cc2F)nsc1NC(=O)NCCCCN1CCCC1,116,122,111,106,108,131,118,111,84.4,39.2,35.9,91.6,100,78.7,83.2,90.5,110,109,103,75.4,22.4,27.9,97,130,97.6,116,97,129,123,114,107,37.1,63.7
CO[C@H]1C[C@H]2OC[C@@]2(OC(C)=O)[C@H]3[C@H](OC(=O)C4=CC=CC=C4)[C@]5(O)C[C@H](OC(=O)[C@H](O)[C@@H](NC(=O)OC(C)(C)C)C6=CC=CC=C6)/C(=C(/[C@@H](OC)C(=O)[C@]13C)C5(C)C)C,61.3,70.2,80.6,15.4,16.5,17.7,16,15,18.1,13.6,15.8,89.4,96.1,11.1,9.9,12.3,14,11.2,15.1,12.7,13.2,13.4,64,61.2,80.6,11.2,13.9,13.5,14.1,13.7,13.2,11.6,11.8
